Source: patent publication US20240254082A1, “Substituted Isoindoline-1, 3-diketone PDE4 Inhibitor and Pharmaceutical Application Thereof” (SUZHOU INTRAGRAND PHARMA CO., LTD, priority 2021, published 2024)
Where two headings read alike, the source gives them in different places.

Tests used:
PDE1C = PDE1C (Homo sapiens, UniProt Q14123); assay: Selective inhibitory activity assay, PDE1C; type: biochemical; details: read-out: Inhibition rate (%) of PDE1C
Method: (§1) 7. Selective inhibitory activity assay for PDE1, 2, 3, 5, 7, 10 and 11 enzymes
(§2) The selective specificity of compounds for PDE4 was assessed by assaying single concentrations of the compounds. For example, PDE1a enzyme, PDElc enzyme, PDE2a enzyme, PDE3a enzyme, PDE3b enzyme, PDE5a1 enzyme, PDE7a enzyme, PDE7b enzyme, PDE10a1 enzyme and PDE11a4 enzyme were tested. The selective inhibitory effects of different compounds on the enzymatic activities of PDEIC, PDE2A, PDE3B, PDE5A1, PDE7A, and PDE10A1 at concentrations of 10 μM and 1 μM, respectively, are shown in the table below: […]

PDE2A = PDE2A (Homo sapiens, UniProt O00408); assay: Selective inhibitory activity assay, PDE2A; type: biochemical; details: read-out: Inhibition rate (%) of PDE2A
Method: as §1, §2

PDE3B = PDE3B (Homo sapiens, UniProt Q13370); assay: Selective inhibitory activity assay, PDE3B; type: biochemical; details: read-out: Inhibition rate (%) of PDE3B
Method: as §1, §2

PDE5A1 = PDE5A1 (Homo sapiens, UniProt O76074); assay: Selective inhibitory activity assay, PDE5A1; type: biochemical; details: read-out: Inhibition rate (%) of PDE5A1
Method: as §1, §2

PDE7A = PDE7A (Homo sapiens, UniProt Q13946); assay: Selective inhibitory activity assay, PDE7A; type: biochemical; details: read-out: Inhibition rate (%) of PDE7A
Method: as §1, §2

PDE10A1 = PDE10A1 (Homo sapiens, UniProt Q9Y233); assay: Selective inhibitory activity assay, PDE10A1; type: biochemical; details: read-out: Inhibition rate (%) of PDE10A1
Method: as §1, §2

TNF-α = assay: Inhibition of TNF-α induced in human peripheral blood mononuclear cells; type: cell-based; details: read-out: IC50 (nM), cytokine TNF-α
IL-2 = assay: Inhibition of IL-2 induced in human peripheral blood mononuclear cells; type: cell-based; details: human PBMC, stimulus SEB; read-out: IC50 (nM), cytokine IL-2
Method: 8. Inhibitory assay of inflammatory factors TNF-α, IL-2, INF-γ
Determination of TNF-α, IL-2 and INF-γ induced by LPS/SEB in human peripheral blood mononuclear cells:
1. The purchased PBMC frozen cells were thawed at 37° C., transferred to RMPI1640 medium, and incubated overnight at 37° C. in an incubator containing 5% of CO2.
2. The next day, the cells were planked at 2×10^5 cells/well, with 100 μL per well.
4. LPS stimulus was added to each well at a final concentration of 10 ng/ml.
5. Incubation was carried out overnight at […] in an incubator containing 5% of CO2.
6. On the third day, the cell culture supernatant was collected, and cytokine assay was performed using an MSD method.

INF-γ = assay: Inhibition of INF-γ induced in human peripheral blood mononuclear cells; type: cell-based
PDE4D3 = PDE4D3 (Homo sapiens, UniProt Q08499); assay: Inhibition assay of PDE4D3 enzyme (TR-FRET kit); type: biochemical
Method: 2. Inhibition assay of PDE4D3 enzyme:
(§3) Materials and Instruments:
FAM substrate: A stock solution of 20 μM FAM substrate was diluted to 200 nM with PDE assay buffer. 12.5 μL of the diluted substrate was added to each reaction well.
(§4) 5 μL of the compound stock solution was added to 45 μL of DMSO to prepare a 1 mM diluent. 5 μL of the 1 mM diluent was added to 45 μL of PDE assay buffer to prepare a gradient dilution starting point. Then, according to the method of adding 5 μL of the previous concentration solution to 15 μL of PDE assay buffer, gradient dilution was carried out for 9 times to prepare compound working solutions with 10 concentrations. The working solutions were added to compound wells at 2.5 μL/well.
PDE4D3: 0.054 μL of a PDE4D3 recombinase stock solution was added to 1500 μL of PDE buffer, and the mixture was added to all compound wells and positive control wells at 10 μL/well. 10 μL of PDE assay buffer was added to substrate control wells.
Binding solution: 3750 μL of binding buffer A and 3750 μL of binding buffer B were mixed well. Then, 150 μL of a binder was added into the mixture and mixed well. 7.5 μL of a Tb donor was added and mixed well. The obtained mixture was added to all wells at 50 μL/well.
S520=Read value of sample 520 nm
S490=Read value of sample 490 nm
Tb520=Read value of Tb only 520 nm
Tb490=Read value of Tb only 490 nm
FRETp=Positive control FRET
FRETsub=Substrate control FRET.

PDE4A1 = target: T1, PDE4A1 (Homo sapiens, UniProt P27815); assay: Inhibition assay of PDE4A1 enzyme (FP kit); type: biochemical
T1 construct: purchased BPS 60340
Method: 3. Inhibition assay of PDE4A1 enzyme:
as §3
(§5) FAM substrate: 25 μL of a FAM substrate stock solution was added into 2500 μL of PDE assay buffer. 25 μL of the diluted substrate was added to each reaction well.
as §4, with “5” for “2.5”
(§6) PDE4A1: First, a PDE4A1 stock solution was diluted by 100 times to a concentration of 4.9 ng/μL, 1.8 μL of the diluent was added to 2200 μL of PDE assay buffer, and the mixture was added to all compound wells and positive control wells at 20 μL/well. 20 μL of PDE assay buffer was added to substrate control wells.
Binding solution: 95 μL of binding buffer was added into 9.5 mL of binder diluent, and then mixed well. The obtained mixture was added to all wells at 100 μL/well.
(§7) FPsub=Substrate control FP.

PDE4B2 = target: T2, PDE4B2 (Homo sapiens, UniProt Q07343); assay: Inhibition assay of PDE4B2 enzyme (FP kit); type: biochemical
T2 construct: purchased BPS 60343
Method: 4. Inhibition assay of PDE4B2 enzyme:
as §3, §5
as §4, with “5” for “2.5”
as §6, with “PDE4B2:” for “PDE4A1:”, “PDE4B2” for “PDE4A1”, “5.2” for “4.9”, “3.2” for “1.8”
Binding solution: 95 μL of binder was added into 9.5 mL of binder diluent, and then mixed well. The obtained mixture was added to all wells at 100 μL/well.
as §7

PDE4C1 = target: T3, PDE4C1 (Homo sapiens, UniProt Q08493); assay: Inhibition assay of PDE4C1 enzyme (FP kit); type: biochemical
T3 construct: purchased BPS 60384
Method: 5. Inhibition assay of PDE4C1 enzyme:
as §3
FAM substrate: 12.5 μL of a FAM substrate stock solution was added into 1250 μL of PDE assay buffer. 12.5 μL of the diluted substrate was added to each reaction well.
as §4
as §6, with “PDE4C1:” for “PDE4A1:”, “PDE4C1” for “PDE4A1”, “3.2” for “4.9”, “13.75” for “1.8”, “1100” for “2200”, “10” for “20”
Binding solution: 50 μL of binder was added into 5 mL of binder diluent, and then mixed well. The obtained mixture was added to all wells at 50 μL/well.
as §7

[1] = Homo sapiens, PBMC, read-out: IC50 (nM), cytokine INF-r, human PBMC, stimulus SEB
[2] = human PBMC, stimulus LPS, read-out: IC50 (nM), cytokine INF-r

Chain of PDE2A (O00408 whole entry, species assumed): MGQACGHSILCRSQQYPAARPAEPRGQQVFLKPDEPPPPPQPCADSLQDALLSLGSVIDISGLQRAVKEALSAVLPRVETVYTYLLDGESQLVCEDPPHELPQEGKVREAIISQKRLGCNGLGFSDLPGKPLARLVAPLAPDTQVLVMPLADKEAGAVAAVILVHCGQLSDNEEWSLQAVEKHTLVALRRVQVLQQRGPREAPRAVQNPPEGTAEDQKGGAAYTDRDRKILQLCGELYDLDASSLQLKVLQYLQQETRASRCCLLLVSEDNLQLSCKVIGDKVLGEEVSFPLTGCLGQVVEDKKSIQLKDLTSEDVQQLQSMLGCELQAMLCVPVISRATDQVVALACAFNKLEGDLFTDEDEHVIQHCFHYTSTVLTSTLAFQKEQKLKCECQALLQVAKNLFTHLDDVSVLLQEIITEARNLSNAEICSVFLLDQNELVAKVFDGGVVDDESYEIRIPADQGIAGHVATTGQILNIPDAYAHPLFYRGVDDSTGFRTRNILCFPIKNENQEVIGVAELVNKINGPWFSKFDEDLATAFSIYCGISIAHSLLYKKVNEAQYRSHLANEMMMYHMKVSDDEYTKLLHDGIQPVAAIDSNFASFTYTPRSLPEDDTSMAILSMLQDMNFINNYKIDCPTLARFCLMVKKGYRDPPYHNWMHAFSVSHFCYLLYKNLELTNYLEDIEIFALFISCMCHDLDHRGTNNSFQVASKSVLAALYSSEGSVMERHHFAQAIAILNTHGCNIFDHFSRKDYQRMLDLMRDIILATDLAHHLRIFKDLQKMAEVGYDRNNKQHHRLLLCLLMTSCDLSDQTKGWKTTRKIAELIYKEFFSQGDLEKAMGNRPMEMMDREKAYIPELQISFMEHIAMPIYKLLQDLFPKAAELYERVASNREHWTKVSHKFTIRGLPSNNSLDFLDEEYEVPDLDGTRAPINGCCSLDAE
Chain of PDE3B (Q13370 whole entry, species assumed): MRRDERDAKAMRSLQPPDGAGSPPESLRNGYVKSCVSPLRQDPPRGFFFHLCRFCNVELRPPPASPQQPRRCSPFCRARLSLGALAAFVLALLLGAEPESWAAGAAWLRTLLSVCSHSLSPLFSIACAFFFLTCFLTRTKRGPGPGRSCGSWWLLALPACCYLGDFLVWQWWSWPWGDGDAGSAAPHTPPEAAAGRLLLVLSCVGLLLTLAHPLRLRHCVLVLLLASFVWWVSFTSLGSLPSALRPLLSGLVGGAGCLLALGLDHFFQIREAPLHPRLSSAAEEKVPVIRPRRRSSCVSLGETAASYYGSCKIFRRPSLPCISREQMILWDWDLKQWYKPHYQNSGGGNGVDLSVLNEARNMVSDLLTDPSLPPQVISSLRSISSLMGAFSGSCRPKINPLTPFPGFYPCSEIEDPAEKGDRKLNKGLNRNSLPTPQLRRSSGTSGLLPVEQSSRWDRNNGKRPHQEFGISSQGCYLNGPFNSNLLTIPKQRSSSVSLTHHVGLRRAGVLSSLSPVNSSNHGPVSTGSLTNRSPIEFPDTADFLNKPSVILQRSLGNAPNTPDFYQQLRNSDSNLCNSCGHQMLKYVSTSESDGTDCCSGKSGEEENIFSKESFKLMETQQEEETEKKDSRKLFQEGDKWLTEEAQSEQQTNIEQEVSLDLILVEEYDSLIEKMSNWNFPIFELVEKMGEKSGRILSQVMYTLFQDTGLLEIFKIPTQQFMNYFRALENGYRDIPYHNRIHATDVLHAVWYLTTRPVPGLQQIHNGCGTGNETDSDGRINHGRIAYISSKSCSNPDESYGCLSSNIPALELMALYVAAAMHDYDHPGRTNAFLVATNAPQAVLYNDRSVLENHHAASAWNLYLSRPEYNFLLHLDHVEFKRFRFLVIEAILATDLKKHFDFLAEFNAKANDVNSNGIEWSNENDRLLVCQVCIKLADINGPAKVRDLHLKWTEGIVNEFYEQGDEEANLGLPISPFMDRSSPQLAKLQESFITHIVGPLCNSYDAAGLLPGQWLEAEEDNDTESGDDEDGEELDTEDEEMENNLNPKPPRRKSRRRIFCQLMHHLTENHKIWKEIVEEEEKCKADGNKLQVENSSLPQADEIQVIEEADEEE
Chain of PDE7A (Q13946 whole entry, species assumed): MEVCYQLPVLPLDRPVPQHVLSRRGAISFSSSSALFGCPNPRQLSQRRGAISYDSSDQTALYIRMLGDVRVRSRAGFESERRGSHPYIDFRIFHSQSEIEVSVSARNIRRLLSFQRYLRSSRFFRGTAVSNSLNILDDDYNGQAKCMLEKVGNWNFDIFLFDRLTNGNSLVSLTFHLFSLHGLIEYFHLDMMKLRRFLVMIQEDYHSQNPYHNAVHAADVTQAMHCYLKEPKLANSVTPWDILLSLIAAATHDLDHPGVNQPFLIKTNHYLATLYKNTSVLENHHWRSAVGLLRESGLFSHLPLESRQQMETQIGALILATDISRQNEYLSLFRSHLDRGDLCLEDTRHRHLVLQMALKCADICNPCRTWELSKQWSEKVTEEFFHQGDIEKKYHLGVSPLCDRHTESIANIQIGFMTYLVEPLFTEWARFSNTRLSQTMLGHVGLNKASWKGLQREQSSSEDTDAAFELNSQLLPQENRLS
Chain of PDE1C (Q14123 whole entry, species assumed): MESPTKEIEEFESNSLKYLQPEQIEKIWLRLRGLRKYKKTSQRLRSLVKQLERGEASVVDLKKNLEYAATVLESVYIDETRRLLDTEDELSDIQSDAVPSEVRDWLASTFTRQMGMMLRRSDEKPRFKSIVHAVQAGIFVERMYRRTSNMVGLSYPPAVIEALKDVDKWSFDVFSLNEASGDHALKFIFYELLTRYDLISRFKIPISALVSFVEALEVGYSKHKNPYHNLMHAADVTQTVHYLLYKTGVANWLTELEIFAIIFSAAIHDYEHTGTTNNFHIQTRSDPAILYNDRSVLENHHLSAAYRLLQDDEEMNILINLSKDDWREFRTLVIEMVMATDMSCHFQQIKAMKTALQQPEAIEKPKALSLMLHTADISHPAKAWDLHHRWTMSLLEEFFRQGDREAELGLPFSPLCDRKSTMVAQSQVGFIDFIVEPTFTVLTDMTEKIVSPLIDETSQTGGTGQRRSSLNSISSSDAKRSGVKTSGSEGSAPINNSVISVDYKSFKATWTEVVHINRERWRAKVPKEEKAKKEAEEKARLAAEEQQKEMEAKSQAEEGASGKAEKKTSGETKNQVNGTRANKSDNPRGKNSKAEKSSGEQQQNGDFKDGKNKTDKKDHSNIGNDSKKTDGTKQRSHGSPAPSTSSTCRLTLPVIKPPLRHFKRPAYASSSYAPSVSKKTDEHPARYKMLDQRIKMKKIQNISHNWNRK
Chain of PDE10A1 (Q9Y233 1-779 isoform Q9Y233-1, species assumed): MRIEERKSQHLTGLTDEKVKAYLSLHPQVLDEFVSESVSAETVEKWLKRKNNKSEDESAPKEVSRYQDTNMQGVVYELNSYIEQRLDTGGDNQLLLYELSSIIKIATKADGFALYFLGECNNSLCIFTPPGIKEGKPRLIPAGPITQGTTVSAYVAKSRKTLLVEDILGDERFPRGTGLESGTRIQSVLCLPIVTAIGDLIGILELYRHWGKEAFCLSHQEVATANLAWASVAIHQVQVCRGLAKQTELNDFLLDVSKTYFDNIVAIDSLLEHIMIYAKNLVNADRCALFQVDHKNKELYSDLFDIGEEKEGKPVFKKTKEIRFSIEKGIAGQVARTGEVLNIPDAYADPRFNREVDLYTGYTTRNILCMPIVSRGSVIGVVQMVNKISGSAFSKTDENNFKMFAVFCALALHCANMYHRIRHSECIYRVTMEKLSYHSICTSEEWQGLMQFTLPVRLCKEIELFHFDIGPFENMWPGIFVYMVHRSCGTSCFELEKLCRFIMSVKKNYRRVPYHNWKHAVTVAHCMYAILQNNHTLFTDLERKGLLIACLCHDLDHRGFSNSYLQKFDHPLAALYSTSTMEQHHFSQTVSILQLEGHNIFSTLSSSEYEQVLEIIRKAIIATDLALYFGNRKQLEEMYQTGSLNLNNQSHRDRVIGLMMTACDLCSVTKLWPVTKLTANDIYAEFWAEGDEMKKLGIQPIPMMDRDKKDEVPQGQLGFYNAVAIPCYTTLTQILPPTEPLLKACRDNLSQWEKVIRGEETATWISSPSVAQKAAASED
T2 sequence (Q07343 1-564 isoform Q07343-2): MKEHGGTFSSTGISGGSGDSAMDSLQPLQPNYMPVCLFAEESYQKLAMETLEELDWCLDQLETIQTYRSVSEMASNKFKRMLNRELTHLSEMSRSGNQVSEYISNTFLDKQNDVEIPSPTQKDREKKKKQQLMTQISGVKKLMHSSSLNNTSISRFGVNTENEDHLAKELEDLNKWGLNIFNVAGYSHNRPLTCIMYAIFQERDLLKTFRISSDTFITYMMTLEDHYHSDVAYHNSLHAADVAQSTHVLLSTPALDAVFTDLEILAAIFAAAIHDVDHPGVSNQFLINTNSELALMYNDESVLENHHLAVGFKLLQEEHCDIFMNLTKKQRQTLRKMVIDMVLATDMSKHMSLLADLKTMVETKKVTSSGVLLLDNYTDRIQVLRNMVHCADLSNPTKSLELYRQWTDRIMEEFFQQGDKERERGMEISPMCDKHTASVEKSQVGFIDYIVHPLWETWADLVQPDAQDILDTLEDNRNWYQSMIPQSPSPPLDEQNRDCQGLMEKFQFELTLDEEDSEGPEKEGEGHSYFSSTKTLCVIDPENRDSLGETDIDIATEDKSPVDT

| Compound | inhibition at 1 µM (PDE1C) | inhibition at 10 µM (PDE1C) | inhibition at 1 µM (PDE2A) | inhibition at 10 µM (PDE2A) | inhibition at 1 µM (PDE3B) | inhibition at 10 µM (PDE3B) | inhibition at 1 µM (PDE5A1) | inhibition at 1 µM (PDE7A) | inhibition at 10 µM (PDE7A) | inhibition at 1 µM (PDE10A1) | inhibition at 10 µM (PDE10A1) | IC50 (IL-2) | IC50 (INF-γ; [1]) | IC50 (TNF-α; human PBMC, stimulus LPS) | IC50 (INF-γ; [2]) | IC50 (PDE4D3) | IC50 (PDE4A1) | IC50 (PDE4B2) | IC50 (PDE4C1) | inhibition at 10 µM (PDE5A1) | other results |
| --- | --- | --- | --- | --- | --- | --- | --- | --- | --- | --- | --- | --- | --- | --- | --- | --- | --- | --- | --- | --- | --- |
| CCOc1cc([C@@H](CS(C)(=O)=O)N2C(=O)c3cccc(NC(C)=O)c3C2=O)ccc1OC [Example 0, Apremilast, reference compound] | 7.77% | 37.1% | 2.95% | 2.35% | 2.44% | 1.56% | 3.97% | 9.41% | 11.1% | 0% | -2.75% | 110 nM | 77.8 nM | – | – | – | – | – | – | – | IC50 (TNF-α; Homo sapiens, PBMC): 63.8 nM; IC50 (INF-γ; Homo sapiens, PBMC, read-out: IC50 (nM), cytokine INF-r, human PBMC, stimulus LPS): 15.4 nM |
| O=C(Nc1c(Cl)cncc1Cl)c1ccc(OC(F)F)c(OCC2CC2)c1 [Roflumilast] | – | – | – | – | – | – | – | – | – | – | – | 14.7 nM | 10.9 nM | 2.83 nM | 1.4 nM | – | – | – | – | – | – |
| CCCCCc1ccc(NC(C)=O)c2c1C(=O)N([C@H](CS(C)(=O)=O)c1ccc(OC)c(OCC)c1)C2=O [Example 9, (S)-2-[1-(3-ethoxy-4-methoxyphenyl)-2-alkylsulfonylethyl]-4-acetamido-7-pentyl isoindoline-1,3-diketone] | 0.49% | 30.6% | 5.83% | 12.2% | 5.44% | 0.81% | 1.99% | 20.8% | 44.5% | 0% | 10.1% | 0.44 nM | 1.82 nM | 0.82 nM | 0.43 nM | < 5 nM | < 100 nM | < 100 nM | < 200 nM | 5.74% | – |
| CCCCCc1ccc(NC(=O)CC)c2c1C(=O)N([C@H](CS(C)(=O)=O)c1ccc(OC)c(OCC)c1)C2=O [Example 13, (S)-2-[1-(3-ethoxy-4-methoxyphenyl)-2-alkylsulfonylethyl]-4-propanamido-7-pentyl isoindoline-1,3-diketone] | 5.34% | 51.7% | 0.08% | 13.8% | 3.31% | 0.94% | 14.1% | 0% | 9.96% | 16.3% | -26.7% | – | – | – | – | 10 to 50 nM | 100 to 200 nM | 100 to 200 nM | 200 to 500 nM | 20.3% | – |
